According to patent US20250388575A1, “HETEROBIFUNCTIONAL COMPOUNDS AND METHODS OF TREATING DISEASE” (Halda Therapeutics OpCo, Inc., priority 2022, published 2025):
Like-named read-outs stand apart in the source and are kept apart here.

Tests used:
T47D cells = assay: Cellular growth inhibition assay for T47D cells, CellTiter-Glo; format: cell-based, human; details: 72 hours treatment, CellTiter-Glo 2.0
Experimental: T47D cells were purchased from American Type Cell Culture (ATCC Cat #HTB-133) and then seeded on poly-D-lysine coated, black clear-bottom 384-well plates at 3000/well in 25 μL Dulbecco's Modified Eagle Medium (DMEM) supplemented with 10% w/w Fetal bovine serum (FBS), 0.2 units/mL recombinant human insulin (Gibco Cat #12585014), and 1% w/w Pen-Strep. Pen-Strep is a commercially available mixture of penicillin G and streptomycin, which is used in mammalian cell culture media to prevent bacterial contamination. Dulbecco's Modified Eagle Medium (DMEM) supplemented with 10% w/w fetal bovine serum (FBS), 0.2 units/mL recombinant human insulin, and 1% w/w Pen-Strep is herein referred to as Treatment Medium. Following seeding of cells in the plates, the plates were spun at 300×g for 30 seconds, then equilibrated to room temperature for 30 minutes, and then deposited in a humidified tissue culture incubator maintained at 37° C. with 5% CO2.
At 24 hours after seeding of the cells, dilutions of test compound were prepared in DMSO and dissolved in Treatment Medium, to achieve a final DMSO concentration of 0.5% w/w, thereby providing the Test Compound Solution. A 25 μL aliquot of the Test Compound Solution was added to cells in the well plates. An equal volume of a solution containing DMSO and Treatment Medium was used as a negative control. Following treatment of cells with Test Compound Solution or said equal volume of a solution containing DMSO and Treatment Medium, the plates were spun at 300×g for 30 seconds, and then left in an incubator for 72 hours.
At the end of the treatment duration, cell viability was quantified with CellTiter-Glo 2.0 reagent (Promega Cat #G9243). For this purpose, plates were equilibrated to room temperature for 30 minutes, and then 25 μL of CellTiter-Glo 2.0 reagent was added to cells in the plate wells. Plates were then agitated on a shaker for two minutes at 500 rpm and subsequently incubated at room temperature for 10 minutes. Following incubation, the plates were spun at 3000×g for 30 seconds, then sealed with an optical adhesive cover, and luminescence readings were measured with an EnVision Plate Reader (Perkin Elmer).
Data was normalized using zero luminescence for baseline. A four-parameter non-linear regression curve fit was applied to dose-response data in GraphPad Prism data analysis software to determine the half-maximal growth inhibitory concentration (GI50) for each test compound.

[1] = tested on: T-Rex 293 cell line SC3 cells lacking increased expression of androgen receptor protein; assay: Cellular growth inhibition, T-Rex 293 SC3 cells lacking increased androgen receptor expression (no doxycycline), CellTiter-Glo; format: cell-based; details: T-Rex 293 SC3 cells lacking increased androgen receptor expression (not exposed to doxycycline), 72 hours, CellTiter-Glo; read-out: GI50
Procedure, shortened: (§1)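 SC3, a T-Rex 293 clone with doxycycline-inducible wild-type androgen receptor, was seeded in phenol red-free DMEM with 10% charcoal-dextran FBS, with or without 10 ng/mL doxycycline. Compound added at 24 h (0.5% DMSO) for 72 h at 37° C. CellTiter-Glo 2.0 luminescence; GI50 from four-parameter fit.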

[2] = tested on: T-Rex 293 cell line SC3 cells having increased expression of androgen receptor protein; assay: Cellular growth inhibition, T-Rex 293 SC3 cells with increased androgen receptor expression (doxycycline), CellTiter-Glo; format: cell-based; details: T-Rex 293 SC3 cells with increased androgen receptor expression (exposed to 10 ng/mL doxycycline), 72 hours, CellTiter-Glo; read-out: GI50
Procedure, shortened: as §1

VCaP cells = assay: Cellular growth inhibition assay for VCaP cells, CellTiter-Glo; format: cell-based, human; details: VCaP cells, 72 hours, CellTiter-Glo, read-out: GI50
Procedure, shortened: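 GI50 values come from four-parameter curve fits of luminescence data normalized to a zero baseline. Compound, in medium with 0.5% DMSO, was added one day after plating and left for 72 h before CellTiter-Glo 2.0 addition.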

Row | GI50 (T47D cells) [nM] | GI50 (VCaP cells) [nM] | GI50 (T47D cells; Homo sapiens) [nM] | GI50 (VCaP cells; Homo sapiens) [nM] | SMILES | GI50 [1] [nM] | GI50 [2] [nM]
1 | < 500 | < 500 |  |  | CCS(=O)(=O)c1ccc(Oc2ccc(CCC3CC4(C3)CN(c3ccc(C(=O)N[C@H]5CC[C@H](Oc6ccc(C#N)c(Cl)c6)CC5)nn3)C4)cc2)c(-c2cn(C)c(=O)c3[nH]ccc23)c1 [I-67] | < 500 | < 500
2 | < 500 | < 500 |  |  | CCS(=O)(=O)c1ccc(Oc2ccc(CCCC3CN(c4ccc(C(=O)N[C@H]5CC[C@H](Oc6ccc(C#N)c(Cl)c6)CC5)nn4)C3)cc2)c(-c2cn(C)c(=O)c3[nH]ccc23)c1 [I-68] | < 500 | < 500
3 | < 500 | < 500 |  |  | CCS(=O)(=O)c1ccc(Oc2ccc(CCC3CN(c4ccc(C(=O)N[C@H]5CC[C@H](Oc6ccc(C#N)c(Cl)c6)CC5)nn4)C3)cc2)c(-c2cn(C)c(=O)c3[nH]ccc23)c1 [I-72] | < 500 | < 500
4 |  |  | < 500 | < 500 | CCS(=O)(=O)c1ccc(Oc2ccc(CN3CC4(C3)CN(c3ccc(C(=O)N[C@H]5CC[C@H](Oc6ccc(C#N)c(Cl)c6)CC5)nn3)C4)c(F)c2)c(-c2cn(C)c(=O)c3[nH]ccc23)c1 [I-74] | < 500 | < 500
5 |  |  | < 500 | < 500 | CCS(=O)(=O)c1ccc(Oc2ccc(CN3CCC4(CCN(c5ccc(C(=O)N[C@H]6CC[C@H](Oc7ccc(C#N)c(Cl)c7)CC6)nn5)C4)C3)c(F)c2)c(-c2cn(C)c(=O)c3[nH]ccc23)c1 (some centres unmarked) [I-75] | < 500 | < 500
6 | < 500 | < 500 |  |  | Cn1cc(-c2cc(S(=O)(=O)C3CC3)ccc2Oc2ccc(CCC3CCN(c4ccc(C(=O)N[C@H]5CC[C@H](Oc6ccc(C#N)c(Cl)c6)CC5)nn4)CC3)cc2)c2cc[nH]c2c1=O [I-76] | < 500 | < 500
7 |  |  | < 500 | < 500 | CCS(=O)(=O)c1ccc(Oc2ccc(CC3CN(c4ccc(C(=O)N[C@H]5CC[C@H](Oc6ccc(C#N)c(Cl)c6)CC5)nn4)C3)cc2)c(-c2cn(C)c(=O)c3[nH]ccc23)c1 [I-77] | < 500 | < 500
8 |  |  | < 500 | < 500 | CCS(=O)(=O)c1ccc(Oc2ccc(CN3CC4(CCN(c5ccc(C(=O)N[C@H]6CC[C@H](Oc7ccc(C#N)c(Cl)c7)CC6)nn5)CC4)C3)c(F)c2)c(-c2cn(C)c(=O)c3[nH]ccc23)c1 [I-78] | < 500 | < 500
9 | 500 to 1500 | < 500 |  |  | CCS(=O)(=O)c1ccc(Oc2ccc(CCC3CCN(c4ccc(C(=O)N[C@H]5CC[C@H](Oc6ccc(C#N)c(Cl)c6)CC5)nn4)CC3)c(C#N)c2)c(-c2cn(C)c(=O)c3[nH]ccc23)c1 [I-79] | > 3000 | < 500
10 |  |  | < 500 | < 500 | CCS(=O)(=O)c1ccc(Oc2ccc(CC3CCN(c4ccc(C(=O)N[C@H]5CC[C@H](Oc6ccc(C#N)c(Cl)c6)CC5)nn4)CC3)c(F)c2)c(-c2cn(C)c(=O)c3[nH]ccc23)c1 [I-80] | < 500 | < 500
11 |  |  | < 500 | < 500 | CCS(=O)(=O)c1ccc(Oc2ccc(CC3CC4(CCN(c5ccc(C(=O)N[C@H]6CC[C@H](Oc7ccc(C#N)c(Cl)c7)CC6)nn5)CC4)C3)c(F)c2)c(-c2cn(C)c(=O)c3[nH]ccc23)c1 [I-81] | < 500 | < 500
12 | < 500 | < 500 |  |  | CCS(=O)(=O)c1ccc(Oc2ccc(CCC3CCN(c4ccc(C(=O)N[C@H]5CC[C@H](Oc6ccc(C#N)c(Cl)c6)CC5)nn4)CC3)c(OC)c2)c(-c2cn(C)c(=O)c3[nH]ccc23)c1 [I-82] | < 500 | < 500
13 | < 500 | < 500 |  |  | CCS(=O)(=O)c1ccc(Oc2ccc(CCC3CCN(c4ccc(C(=O)N[C@H]5CC[C@H](Oc6ccc(C#N)c(Cl)c6)CC5)nn4)CC3)c(Cl)c2)c(-c2cn(C)c(=O)c3[nH]ccc23)c1 [I-84] | > 3000 | < 500
14 | < 500 | < 500 |  |  | CCS(=O)(=O)c1ccc(Oc2ccc(CCC3CCN(c4ccc(C(=O)N[C@H]5CC[C@H](Oc6ccc(C#N)c(Cl)c6)CC5)nn4)CC3)c(C(F)(F)F)c2)c(-c2cn(C)c(=O)c3[nH]ccc23)c1 [I-85] | < 500 | < 500
15 | < 500 | < 500 |  |  | CCS(=O)(=O)c1ccc(Oc2ccc(N3CC(C4CCN(c5ccc(C(=O)N[C@H]6CC[C@H](Oc7ccc(C#N)c(Cl)c7)CC6)nn5)CC4)C3)cc2)c(-c2cn(C)c(=O)c3[nH]ccc23)c1 [I-91] | < 500 | < 500
16 | 500 to 1500 | < 500 |  |  | Cn1cc(-c2cc(C(C)(C)O)ccc2Oc2ccc(CCC3CCN(c4ccc(C(=O)N[C@H]5CC[C@H](Oc6ccc(C#N)c(Cl)c6)CC5)nn4)CC3)c(F)c2)c2cc[nH]c2c1=O [I-113] | > 3000 | < 500

The next lines start with the molecule.

Row | SMILES | GI50 (T47D cells) [nM] | GI50 (VCaP cells) [nM] | GI50 (T47D cells; Homo sapiens) [nM] | GI50 (VCaP cells; Homo sapiens) [nM] | GI50 [1] [nM] | GI50 [2] [nM]
17 | CCS(=O)(=O)c1ccc(Oc2ccc(CC3CC4(C3)CN(c3ccc(C(=O)N[C@H]5CC[C@H](Oc6ccc(C#N)c(Cl)c6)CC5)nn3)C4)cc2)c(-c2cn(C)c(=O)c3[nH]ccc23)c1 [I-69] |  |  | < 500 | < 500 | < 500 | < 500
18 | CCS(=O)(=O)c1ccc(Oc2ccc(CCC3C4CN(c5ccc(C(=O)N[C@H]6CC[C@H](Oc7ccc(C#N)c(Cl)c7)CC6)nn5)CC34)cc2)c(-c2cn(C)c(=O)c3[nH]ccc23)c1 (some centres unmarked) [I-70] | < 500 | < 500 |  |  | < 500 | < 500
19 | CCS(=O)(=O)c1ccc(Oc2ccc(CCCC3C4CN(c5ccc(C(=O)N[C@H]6CC[C@H](Oc7ccc(C#N)c(Cl)c7)CC6)nn5)CC34)cc2)c(-c2cn(C)c(=O)c3[nH]ccc23)c1 (some centres unmarked) [I-71] |  |  | < 500 | < 500 | < 500 | < 500
20 | CCS(=O)(=O)c1ccc(Oc2ccc(CCCCC3CN(c4ccc(C(=O)N[C@H]5CC[C@H](Oc6ccc(C#N)c(Cl)c6)CC5)nn4)C3)cc2)c(-c2cn(C)c(=O)c3[nH]ccc23)c1 [I-73] | < 500 | < 500 |  |  | < 500 | < 500
21 | CCS(=O)(=O)c1ccc(Oc2ccc(CC3CC4(CCN(c5ccc(C(=O)N[C@H]6CC[C@H](Oc7ccc(C#N)c(Cl)c7)CC6)nn5)CC4)C3)cc2)c(-c2cn(C)c(=O)c3[nH]ccc23)c1 [I-86] |  |  | < 500 | < 500 | < 500 | < 500
22 | C=CC1CN(c2ccc(C(=O)N[C@H]3CC[C@H](Oc4ccc(C#N)c(Cl)c4)CC3)nn2)CC1c1ccc(Oc2ccc(S(=O)(=O)CC)cc2-c2cn(C)c(=O)c3[nH]ccc23)cc1 (some centres unmarked) [I-87] | < 500 | < 500 |  |  | 500 to 1500 | < 500
23 | CCS(=O)(=O)c1ccc(Oc2ccc(C(C)(C)N3CC4(CN(c5ccc(C(=O)N[C@H]6CC[C@H](Oc7ccc(C#N)c(Cl)c7)CC6)nn5)C4)C3)cc2)c(-c2cn(C)c(=O)c3[nH]ccc23)c1 [I-88] |  |  | < 500 | < 500 | < 500 | < 500
24 | CCC1CN(c2ccc(C(=O)N[C@H]3CC[C@H](Oc4ccc(C#N)c(Cl)c4)CC3)nn2)CC1c1ccc(Oc2ccc(S(=O)(=O)CC)cc2-c2cn(C)c(=O)c3[nH]ccc23)cc1 (some centres unmarked) [I-89] | < 500 | < 500 |  |  | > 3000 | < 500
25 | CN(CCCc1ccc(Oc2ccc(C(C)(C)O)cc2-c2cn(C)c(=O)c3[nH]ccc23)cc1)c1ccc(C(=O)N[C@H]2CC[C@H](Oc3ccc(C#N)c(Cl)c3)CC2)nn1 [I-105] | 1500 to 3000 | < 500 |  |  | < 500 | < 500
26 | Cn1cc(-c2cc(C(C)(C)O)ccc2Oc2ccc(CCC3CCN(c4ccc(C(=O)N[C@H]5CC[C@H](Oc6ccc(C#N)c(Cl)c6)CC5)nn4)CC3)c(F)c2F)c2cc[nH]c2c1=O [I-112] | 500 to 1500 | 500 to 1500 |  |  | > 3000 | < 500
